Experimental data as given in patent US10889844B2, “Methods of degrading or hydrolyzing a polysaccharide” (Novozymes A/S, priority 2010, dated 2021).
“Also recorded” adds a separate entry of the source.

Key:
Format in all cases: biochemical
[1] = Time course of filter paper cellulose degradation by […] with CelS2 (FIG. 25); conditions: 0.5 mM reduced glutathione
Method: In reactions where no CelS2 was present, 40 μg/ml purified BSA was added in order to maintain an identical protein load. […] Data are mean+/−SD (N=3); error bars indicate SD.

[2] = Filter paper degradation by HjCel7A with CelS2 over time (FIG. 26); conditions: no CelS2 present
Method: By far the major products of these reactions are cellooligosaccharides released by the cellulases (whose activity is boosted by CelS2). In the case of HjCel7A, the main product is cellobiose and formation of this product is shown. RG, indicates the presence of a reductant, in this case reduced glutathione. […] The reactions were run at 50° C.

[3] = Filter paper cellulose degradation by […] with E7 (FIG. 28); conditions: 2 mM reduced glutathione
Method: 1 μM of the N-terminal CBM33 domain of CelS2 was incubated with 10 mg/ml AVICEL® in the presence of 0.8 mM of one of the reductants, or in the absence of any reductant. Reactions were run in 50 mM succinate buffer pH 5.5, 1 mM MgCl2, at 50° C. and 900 rpm (vertical agitation) for 20 hours. […] (glucose and cellobiose reported as [Glc]) released after incubation of 0.08 μl/ml […]™ (CC) in the presence or absence of 1 μM E7 and 2 mM reduced glutathione (RG) as external electron donor with 2 mg/ml filter paper cellulose. Reactions were incubated in 20 mM sodium acetate buffer pH 5.5, 1 mM MgCl2, at 50° C. and 900 rpm (horizontal agitation) for up to 50 hours.

[4] = test system: CBP21 (Serratia marcescens); conditions: CBP21 alone on beta-chitin with reductant; 10 mM sodium dithionite anaerobic or 2.0 mM potassium cyanide
CBP21 [5] = biological target: T1, CBP21 (Serratia marcescens, UniProt P9WEM3)
Cellic™ CTec2 = experiment: Effect of ascorbic acid on glucose release from cellulose by Cellic CTec2 (FIG. 35); conditions: 0.5 mM ascorbic acid, 24 hours
CBP21 [6] = biological target: T1, CBP21; experiment: Reactions under metal chelating conditions: re-activation of metal-free CBP21
Method: Solid lines indicate reactions with metal-free CBP21; dashed lines indicate reactions without CBP21. Half way through the reaction (indicated by the arrow) MgCl2 (final concentration 25 mM), ZnCl2 (25 mM) or buffer was added to one of two (parallel) reaction mixtures. Squares, MgCl2 added; circles, ZnCl2 added; triangles, buffer added.
Divalent cations were removed by chelation through dialysis of a 10 mg/mL CBP21 solution in a buffer containing 20 mM Tris-HCl and 5 mM EDTA. The protein solution was present in a Slide-A-Lyzer cassette (Pierce) with 10 kDa MW cut-off dialysis membrane. […] For the re-activation experiment, the divalent cations were added to the appropriate reaction solutions immediately after the third sampling (90 minutes).

[7] = EfCBM33 (dissolved crystals) on beta-chitin, MALDI-TOF MS; conditions: 2.0 mg/ml beta-chitin
Method: (§1) For use in chitin degradation experiments, eight crystals were harvested from a 2 μL drop using a nylon loop and transferred to a 4 μL drop containing the crystallization liquor from the buffer reservoir. The crystals were mixed around in order to “rinse off” potential contaminants. After the first rinse, the crystals were transferred to a new 4 μL drop containing the crystallization liquor for a second rinsing cycle. Finally, all crystals were transferred to and dissolved in a 4 μL drop containing 20 mM Tris-HCl, pH 8.0. The resulting solution was diluted by adding it to a test tube containing 46 μL 20 mM Tris-HCl, pH 8.0. […] Soluble products in the supernatant of the reaction were analyzed by MALDI-TOF, using the same methods as those used for testing the activity of CBP21. Further, the ability of EfCBM33 to boost degradation of alpha-chitin was probed by conducting an experiment where 2.0 mg/ml alpha-chitin (shrimp shells) was incubated with 0.3 μM of the chitinase from Entreococcus feacalis (protein name (EF0361)) in the presence or absence of 0.3 μM EfCBM33 and 1.0 mM reductant (R: reduced glutathione) incubated at 37° C. with agitation at 900 rpm.

[8] = EfCBM33 boost of alpha-chitin degradation by chitinase EF0361; conditions: 2.0 mg/ml alpha-chitin, 0.3 μM EF0361, 0.3 μM EfCBM33, 1.0 mM reduced glutathione
Method: as §1

[9] = Cleavage of AVICEL by GH61 proteins in the presence of ascorbic acid (HPAEC, FIG. 34); conditions: 140 μg/ml GH61 protein, 10 mg/ml AVICEL, 2.4 mM ascorbic acid, pH 6.6, 24 hours
Source text: The two proteins were cloned and produced as described in Harris et al., 2010, supra. […] While the product pattern is similar to that obtained with CBM33s, it is not identical. The patterns typically obtained with CBM33s acting on cellulose in the presence of reductants (FIGS. 19, 22, 27, 30, and 31) show different peridiodicities (i.e., relative abundances of the various products, both oxidized and native oligosaccharides). This may indicate that TtGH61E acts on the substrate in a slightly different way, e.g., by attacking another face of the crystal. Clearly, however, the overall outcome of the reaction of TtGH61E in the presence of the reductant is similar to the outcome of reactions of CBM33s on cellulose in the presence of reductant.

T1 sequence (P9WEM3 28-197): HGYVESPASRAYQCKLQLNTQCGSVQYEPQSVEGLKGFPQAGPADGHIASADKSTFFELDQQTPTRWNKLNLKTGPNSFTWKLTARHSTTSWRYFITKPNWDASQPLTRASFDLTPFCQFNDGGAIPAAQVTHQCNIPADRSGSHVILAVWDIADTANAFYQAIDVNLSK
CBP21 (Serratia marcescens), sequence (P9WEM3 28-197): as above

N[C@@H](CCC(=O)N[C@@H](CS)C(=O)NCC(=O)O)C(=O)O [reduced glutathione, reference compound]
effect of reductant in reactions with only CC [1]: no effect in reactions with only CC
effect of reductant on Cel7A alone [2]: essentially identical
effect of reductant in reactions with only CC [3]: no effect in reactions with only CC

O=S([O-])S(=O)[O-].[Na+].[Na+] [sodium dithionite, Sodium dithionite]
effect on CBP21 generated oxidized products [4]: no detectable amounts of CBP21 generated products
effect on the potentiating effect of CBP21 on ChiC (CBP21 [5]): abolished

O=C1O[C@H]([C@@H](O)CO)C(O)=C1O [ascorbic acid]
increase of the release of glucose (Cellic™ CTec2; AVICEL®): about 30%
increase of the release of glucose (Cellic™ CTec2; Filter Paper): about 30%

[Cl-].[Cl-].[Zn+2] [ZnCl2]
re-activation of metal-free CBP21 (CBP21 [6]): Re-activation of metal-free CBP21 was achieved

[Cl-].[Cl-].[Mg+2] [MgCl2]
re-activation of metal-free CBP21 (CBP21 [6]): Re-activation of metal-free CBP21 was achieved

B1: EfCBM33: family 33 CBM from Enterococcus faecalis (Uniprot ID:Q838S1; SEQ ID NO: 5) (protein, listed as Enterococcus faecalis)
chain: MKKSLLTIVLAFSFVLGGAALAPTVSEAHGYVASPGSRAFFGSSAGGNLNTNVGRAQWEPQSIEAPKNTFITGKLASAGVSGFEPLDEQTATRWHKTNITTGPLDITWNLTAQHRTASWDYYITKNGWNPNQPLDIKNFDKIASIDGKQEVPNKVVKQTINIPTDRKGYHVIYAVWGIGDTVNAFYQAIDVNIQ
oxidohydrolytic activity on beta-chitin (soluble products) [7]: clearly showing the formation of oxidized products; also recorded: the product spectrum is dominated by even-numbered oxidized chitooligosaccharides
boost of chitinase activity on alpha-chitin [8]: A boost of the chitinase activity is clearly observed

B2: TtGH61E: GH61 protein from Thielavia terrestris (SEQ ID NO: 1) (protein)
chain: MLANGAIVFLAAALGVSGHYTWPRVNDGADWQQVRKADNWQDNGYVGDVTSPQIRCFQATPSPAPSVLNTTAGSTVTYWANPDVYHPGPVQFYMARVPDGEDINSWNGDGAVWFKVYEDHPTFGAQLTWPSTGKSSFAVPIPPCIKSGYYLLRAEQIGLHVAQSVGGAQFYISCAQLSVTGGGSTEPPNKVAFPGAYSATDPGILINIYYPVPTSYQNPGPAVFSCMLANGAIVFLAAALGVSGHYTWPRVNDGADWQQVRKADNWQDNGYVGDVTSPQIRCFQATPSPAPSVLNTTAGSTVTYWANPDVYHPGPVQFYMARVPDGEDINSWNGDGAVWFKVYEDHPTFGAQLTWPSTGKSSFAVPIPPCIKSGYYLLRAEQIGLHVAQSVGGAQFYISCAQLSVTGGGSTEPPNKVAFPGAYSATDPGILINIYYPVPTSYQNPGPAVFSC
modifications: T. terrestris
cleavage of cellulose, oxidized products [9]: cuts cellulose producing oxidized and native celluoligosaccharides

B3: TaGH61A: GH61 protein (SEQ ID NO: 2), GH61A from T. aurantiacus (protein)
chain: MSFSKIIATAGVLASASLVAGHGFVQNIVIDGKKYYGGYLVNQYPYMSNPPEVIAWSTTATDLGFVDGTGYQTPDIICHRGAKPGALTAPVSPGGTVELQWTPWPDSHHGPVINYLAPCNGDCSTVDKTQLEFFKIAESGLINDDNPPGIWASDNLIAANNSWTVTIPTTIAPGNYVLRHEIIALHSAQNQDGAQNYPQCINLQVTGGGSDNPAGTLGTALYHDTDPGILINIYQKLSSYIIPGPPLYTG
modifications: T. aurantiacus
cleavage of cellulose, oxidized products [9]: much less active than TtGH61E
